Where “and” joins values, the source holds several entries; their conditions need not be identical. Equal entries are not always repeated. Entries after “also recorded” stand apart in the source; their conditions may differ.

We go through two molecules from patent publication US11884747B2, “Compstatin analogs with increased solubility and improved pharmacokinetic properties” (The Trustees of the University of Pennsylvania, priority 2018, dated 2024).

Series [1] relates to classical pathway of complement. As to the kind of experiment: Classical pathway complement inhibition ELISA (C3b deposition) in normal human plasma. To be noted: human plasma diluted 1:40; mean of at least three experiments. The format is biochemical. The method, then: For this purpose, microtiter wells (NUNC) were coated with 50 μl of 1% ovalbumin in PBS (pH 7.4) at ambient temperature for 2 h. The wells were blocked with 200 μl of 1% BSA in PBS for 1 h, then coated with 50 μl of 1:1000 α-ovalbumin polyclonal antibody in PBS for 1 h. Between each step, the plate was washed thrice with 200 μl of 0.05% Tween 20 in PBS (PBS-T); 30 μl of VBS (Veronal buffer 1×; 5 mM veronal, pH 7.4, containing 150 mM NaCl, 0.5 mM CaCl2 and 0.5 mM MgCl2) were placed in all but the first well of each row of the 96-well plate, and 5 μM peptide solutions in VBS were prepared. […] Human plasma diluted 1:40 in VBS was incubated for 15 min with peptide of 0.005 to 2.5 μM. After washing with PBS-T, 50 μl/well of 1:1000 goat a-human C3 HRP conjugated antibody in 1% BSA in PBS was added to the wells and incubated for 1 h at room temperature. Complement fixation indicating activation was detected by the addition of HRP substrate (0.05% ABTS and 0.1% of 30% aqueous H2O2 in 0.1 M sodium citrate, pH 4.2) and read at 405 nm. The absorbance data obtained at 405 nm were translated into % inhibition, considering 100% to be equal to complement activation in the absence of peptide. The percent inhibition was plotted against the logarithm of concentrations, and the resulting data set was fitted to the equation “log(inhibitor) vs. normalized response” using GraphPad Prism 5 (La Jolla, CA). IC50 values were obtained from the fitted parameters of the mean of at least three independent experiments. Cp40 was always used as the internal control.

Series [2] deals with T1, human C3b (Homo sapiens, UniProt P01024).
T1 construct: purchased Complement Technology, Inc., Tyler, TX
T1 sequence (P01024 23-667 limits assumed): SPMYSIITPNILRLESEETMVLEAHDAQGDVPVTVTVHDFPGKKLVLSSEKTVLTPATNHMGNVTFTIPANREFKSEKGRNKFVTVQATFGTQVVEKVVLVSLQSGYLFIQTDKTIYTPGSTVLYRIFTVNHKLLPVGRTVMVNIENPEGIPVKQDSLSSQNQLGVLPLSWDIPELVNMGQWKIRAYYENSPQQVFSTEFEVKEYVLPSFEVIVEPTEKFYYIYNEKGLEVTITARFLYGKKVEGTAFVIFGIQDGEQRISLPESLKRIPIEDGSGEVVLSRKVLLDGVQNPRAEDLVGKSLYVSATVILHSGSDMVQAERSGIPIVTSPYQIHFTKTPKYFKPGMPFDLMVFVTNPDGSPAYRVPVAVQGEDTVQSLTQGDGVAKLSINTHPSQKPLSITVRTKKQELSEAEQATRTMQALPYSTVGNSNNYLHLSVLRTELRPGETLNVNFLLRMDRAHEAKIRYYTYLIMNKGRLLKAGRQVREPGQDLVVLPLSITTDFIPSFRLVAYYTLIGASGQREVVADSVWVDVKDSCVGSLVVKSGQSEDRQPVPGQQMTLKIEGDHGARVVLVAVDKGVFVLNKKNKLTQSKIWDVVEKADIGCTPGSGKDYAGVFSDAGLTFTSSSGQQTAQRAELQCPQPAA
T1 sequence (P01024 749-1663 partner limits assumed): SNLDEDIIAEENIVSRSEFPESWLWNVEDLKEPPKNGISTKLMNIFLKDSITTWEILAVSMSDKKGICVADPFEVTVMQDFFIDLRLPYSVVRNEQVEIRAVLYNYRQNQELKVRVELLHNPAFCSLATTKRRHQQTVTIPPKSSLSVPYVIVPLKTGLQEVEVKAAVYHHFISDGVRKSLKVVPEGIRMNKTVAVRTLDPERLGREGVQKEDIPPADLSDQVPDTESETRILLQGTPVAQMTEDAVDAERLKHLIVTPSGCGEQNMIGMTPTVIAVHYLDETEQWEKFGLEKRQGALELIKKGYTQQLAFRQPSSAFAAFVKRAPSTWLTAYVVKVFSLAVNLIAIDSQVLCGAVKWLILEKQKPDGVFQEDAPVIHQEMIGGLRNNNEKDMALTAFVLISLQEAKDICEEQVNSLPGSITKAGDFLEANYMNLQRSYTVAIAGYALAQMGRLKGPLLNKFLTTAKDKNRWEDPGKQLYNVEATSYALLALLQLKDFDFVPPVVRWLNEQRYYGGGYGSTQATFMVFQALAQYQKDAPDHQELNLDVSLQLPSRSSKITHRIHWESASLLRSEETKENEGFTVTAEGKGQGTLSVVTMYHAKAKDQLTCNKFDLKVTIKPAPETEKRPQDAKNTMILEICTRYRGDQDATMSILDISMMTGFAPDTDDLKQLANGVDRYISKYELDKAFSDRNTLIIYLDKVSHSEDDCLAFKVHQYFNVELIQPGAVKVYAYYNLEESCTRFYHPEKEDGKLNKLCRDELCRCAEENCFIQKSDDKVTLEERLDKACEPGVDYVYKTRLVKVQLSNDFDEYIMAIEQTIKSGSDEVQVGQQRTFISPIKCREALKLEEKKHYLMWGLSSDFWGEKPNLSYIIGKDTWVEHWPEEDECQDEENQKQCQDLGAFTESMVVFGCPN
In words: SPR binding affinity and kinetic profile with immobilized C3b. To be noted: 25 °C; for kd, dissociation constant: 1:1 Langmuir model; for Kd: KD=kd/ka, read-out: KD, equilibrium dissociation constant.

Series [3] in a line: Pharmacokinetics after single i.v. injection. The format is in vivo, cynomolgus monkeys. The method, then: FIG. 11 show graphs of peptide concentration over time in cynomolgus monkeys to which was administered a single 2 mg/kg intravenous injection of Cp40-KK (panel a), Cp40-KKK (panel b), mPEG(1 k)-Cp40 (panel c), and mPEG(3 k)-Cp40 (panel d). […]
In vivo pharmacokinetic studies were conducted, in which cynomolgus monkeys were administered single i.v. injections of mPEG(1 k)-Cp40, mPEG(3 k)-Cp40, Cp40-KK, or Cp40-KKK.

The nature of series [4]: Residence time in the vitreous after single intravitreal injection (WES and SPR competition assay). The format is in vivo, cynomolgus monkeys. As to the method: To determine the residence time of mPEG(3 k)-Cp40, mPEG(1 k)-Cp40, Cp40-KK, and Cp40-KKK in the vitreous of cynomolgus macaques, these Cp40-based analogs were administered intravitreally (i.v.t.) to the animals after induction of light ketamine anesthesia (10-15 mg/kg, by intramuscular injection (i.m.)) and dilation of the pupils with tropicamide/phenylephrine ophthalmic solution (see Table 6 for study design).
For i.v.t. injection, the cynomolgus monkeys were anesthetized with a combination of ketamine (15-25 mg/kg, i.m.) and xylazine (2 mg/kg, i.m.) and the eye was cleaned with povidone-iodine solution. After application of oxybuprocaine hydrochloride solution (Benoxil® ophthalmic solution 0.4%) to the cornea as a local anesthetic, the Cp40-based analogs were administered to the animals by i.v.t. injection into either the right (G1, G3) or left (G2, G4) eye of each animal. Immediately following each injection, a single topical dose of 0.5% levofloxacin was administered. After i.v.t. injection of mPEG(3 k)-Cp40, mPEG(1 k)-Cp40, Cp40-KK, and Cp40-KKK, vitreous fluid samples (about 50 μL each) were withdrawn from Cp40-based analog-treated eyes on days 14, 28, 42, (G1, G2, G3, G4), 56, 73, 90 (G1, G2) (this was done either three times or six times). Samples were collected on ice and stored in a deep freezer (˜79.3 to −68.5° C.) until further analysis. […] Presence and concentration of the Cp40-based analogs was determined using either the simple western technology (WES, ProteinSimple, San Jose, CA), or surface plasmon resonance (SPR)-based real-time measurement of binding kinetics on a Cp40-KKK immobilized chip (see detailed methods below). Similar results with regard to the intravitreal residence time and concentration levels of the test compounds were obtained regardless of the quantification method selected.
To quantify the levels of all test compounds in vitreous samples collected at different time points following i.v.t. injection (see FIG. 15), WES analysis was performed on a WES instrument (ProteinSimple, San Jose, CA) using a 2 to 40 kDa Separation Module and Anti-Rabbit Detection Module according to the manufacturers' instructions. […] The resulting electropherograms were evaluated using the Compass software (ProteinSimple, San Jose, CA). The following criteria were used to discriminate low peptide signals from background: The peak signal-to-noise (S/N) ratio given by the software must be ≥10, and the peak height/baseline ratio (calculated manually from the peak height and baseline values given by the software) must be equal to or greater than 3. […] Shown in FIG. 15 is a representative standard curve generated using the WES system and bands obtained upon running pre-determined amounts of purified peptide spiked into rabbit vitreous samples. […]

The test system of series [5] is complement classical pathway. As to the kind of experiment: Classical pathway activation (C3b deposition) ELISA in human plasma with or without rabbit vitreous. The format is biochemical. To be noted: in the absence of vitreous. The method, then:
An alternative explanation to the one presented above is that the vitreous contains additional unidentified factors that associate with the Cp40-KKK analog. To investigate whether an unidentified vitreous factor impacts the complement inhibitory activity of lysine containing compounds, complement activation assays were performed using vitreous samples. Briefly, human plasma was incubated with OVA-anti-OVA immune-complexes in the presence of serial dilutions of the Cp40-based analogs mixed with rabbit vitreous. Levels of classical pathway activation (C3b deposition) were determined by ELISA using a polyclonal anti-human C3 antibody conjugated with HRP (MP Biomedicals, Solon, OH) (FIG. 20).

The conditions of series [6]: at the stated concentration; indicator paper.
Series [7] is described as follows: Pharmacokinetics in NHP plasma after single s.c. injection, with plasma C3 levels.
The target of series [8] is C3. To be noted: Qu et al. (2013); cited from earlier work.

Turning to `CC[C@H](C)[C@H](NC(=O)[C@H](N)Cc1ccc(O)cc1)C(=O)N[C@H]1CSSC[C@@H](C(=O)N(C)[C@H](C(=O)N[C@@H](CCCCN)C(=O)N[C@@H](CCCCN)C(N)=O)[C@@H](C)CC)NC(=O)[C@H](CCCNC(=N)N)NC(=O)[C@H](Cc2c[nH]cn2)NC(=O)[C@H](C)NC(=O)CN(C)C(=O)[C@H](Cc2c[nH]c3ccccc23)NC(=O)[C@H](CC(=O)O)NC(=O)[C@H](CCC(N)=O)NC(=O)[C@H](Cc2cn(C)c3ccccc23)NC(=O)[C@H](C(C)C)NC1=O` [Cp40-KK, DTyr-Ile-[Cys-Val-Trp(Me)-Gln-Asp-Trp-Sar-Ala-His-Arg-Cys]-mIle-Lys-Lys—NH2], in series [1], the half-inhibitory concentration (IC50) was 61.8 ± 4.2 nM. Further, in series [2], the “kd, dissociation constant” value was 1.52 ± 0.25 10^−3s^−1 and the equilibrium dissociation constant (Kd) was 0.44 ± 0.17 nM. Also, in series [3] (after i.v. injection), the “in vivo Lys cleavage in plasma” value is on record as “metabolized to minimal amounts of Cp40-K”. Moreover, the AUC(0-t) in series [3] (cynomolgus monkey, plasma, iv, 2 mg/kg, single i.v. injection, read-out: AUC0-120h) was found to be 85.2 µM·h. For the same molecule, the “detection in vitreous over time” value in series [4] (single i.v.t. 500 μg, days 14-90) is given as “no longer detected on day 90”. In series [5], the “complement classical pathway inhibitory activity” value was “inhibitory activity in a dose-dependent manner”. The “pH of the peptide solution in PBS” value in series [6] is listed as 7-7.5. The “in vivo Lys cleavage in plasma” value in series [7] (after s.c. injection, UPLC-ESI-MS) is “Cp40-K was also detected in the NHP plasma samples, beginning at 30 min after sc injection; also recorded: cleaved in vivo generating minimal amounts of Cp40-K”. Besides, in series [7] (single s.c. 2 mg/kg), the “C3 saturation time (peptide above plasma level of C3)” value fell in the range of 2.5 to 5 h. Further, the “CL/F, apparent clearance” value in series [7] (single s.c. 2 mg/kg, SUM for Lys analogs, 2 mg/kg) was 3348 ((mg/kg)/(μM · h) and 2648 ((mg/kg)/(μM · h).

In series [1], `CC[C@H](C)[C@H](NC(=O)[C@H](N)Cc1ccc(O)cc1)C(=O)N[C@H]1CSSC[C@@H](C(=O)N(C)[C@H](C(N)=O)[C@@H](C)CC)NC(=O)[C@H](CCCNC(=N)N)NC(=O)[C@H](Cc2c[nH]cn2)NC(=O)[C@H](C)NC(=O)CN(C)C(=O)[C@H](Cc2c[nH]c3ccccc23)NC(=O)[C@H](CC(=O)O)NC(=O)[C@H](CCC(N)=O)NC(=O)[C@H](Cc2cn(C)c3ccccc23)NC(=O)[C@H](C(C)C)NC1=O` [Cp40, DTyr-Ile-[Cys-Val-Trp(Me)-Gln-Asp-Trp-Sar-Ala-His-Arg-Cys]-mIle-NH2, reference compound] came in with an IC50 of 56.8 ± 3 nM. In series [2], the “kd, dissociation constant” value is 1.84 ± 0.40 10^−3s^−1 and the dissociation constant (Kd) amounted to 0.53 ± 0.14 nM. Besides, the detection in vitreous entry in series [4] (100 μg i.v.t.) was “no detection of any compound was observed after one month”. Also, the “complement classical pathway inhibitory activity” value in series [5] is reported as “inhibitory activity in a dose-dependent manner”. Also, the “pH of the peptide solution in PBS” value in series [6] came to 7.5. In series [8], the “binding affinity for C3” value is on record as “subnanomolar” and the “binding affinity for C3 higher than that of the parent peptide” value is recorded as ~6,000 fold. For the same molecule, the “C3 saturation time (peptide above plasma level of C3)” value in series [7] (single s.c. 2 mg/kg, 2 mg/kg) was 4 to 5 h and ~4.5 h.
